According to ChEMBL document CHEMBL1155333, “Amine substituted N-(1H-benzimidazol-2ylmethyl)-5,6,7,8-tetrahydro-8-quinolinamines as CXCR4 antagonists with potent activity against HIV-1” (Bioorg Med Chem Lett, 2009):
Active and inactive are the calls of the source. The calls are words filed in the database; no cut-off is given here.

Tests used:
[1] = Cytotoxicity against human HOS cells; assay type: cell-based
[2] = target: C-X-C chemokine receptor type 4 (Homo sapiens) (UniProt P61073); test: Antagonist activity at CXCR4 by noncompetitive binding assay
[3] = tested on: Human immunodeficiency virus 1; test: Antiviral activity against HIV1 3B infected in human HOS cells; assay type: functional, organism-based; conditions: Human immunodeficiency virus 1, 3B
[4] = tested on: Human immunodeficiency virus 1; test: Ratio of AMD070 IC50 to compound IC50 for HIV1 3B infected in human HOS cells; assay type: functional

Chain of C-X-C chemokine receptor type 4 (Homo sapiens) (P61073 whole entry): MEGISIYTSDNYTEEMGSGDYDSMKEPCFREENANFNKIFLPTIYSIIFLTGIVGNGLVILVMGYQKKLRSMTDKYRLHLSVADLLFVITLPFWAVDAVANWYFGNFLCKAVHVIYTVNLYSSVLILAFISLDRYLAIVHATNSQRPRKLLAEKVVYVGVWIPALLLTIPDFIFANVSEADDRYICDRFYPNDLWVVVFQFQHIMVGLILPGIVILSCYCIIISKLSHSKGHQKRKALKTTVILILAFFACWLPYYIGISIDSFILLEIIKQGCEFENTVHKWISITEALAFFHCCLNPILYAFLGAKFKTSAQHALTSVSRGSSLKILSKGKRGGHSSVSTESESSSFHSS

Row | SMILES | CC50 [1] | Activity [2] | IC50 [3] | Ratio IC50 [4]
1 | CN(Cc1nc2c(CNCCc3c[nH]cn3)cccc2[nH]1)C1CCCc2cccnc21 (stereo not given) | > 20000 nM | – | – | –
2 | CN1CCN(C(=O)c2cccc3[nH]c(CN(C)C4CCCc5cccnc54)nc23)CC1 (stereo not given) | > 10000 nM | – | – | –
3 | CN(Cc1nc2ccccc2n1CCCNC(=N)N)C1CCCc2cccnc21 (stereo not given) | > 20000 nM | Active | 26 nM | –
4 | CN1CCN(c2cccc3nc(CN(C)[C@@H]4CCCc5cccnc54)[nH]c23)CC1 | 12300 nM | Active | 6.9 nM | –
5 | CN(Cc1nc2cccc(N3CCNCC3)c2[nH]1)C1CCCc2cccnc21 (stereo not given) | – | Active | 6 nM | –
6 | CN(Cc1nc2c(CN3CCNCC3)cccc2[nH]1)C1CCCc2cccnc21 (stereo not given) | 12000 nM | – | – | –
7 | CN(Cc1nc2cccc(C(=O)NCCCCN)c2[nH]1)C1CCCc2cccnc21 (stereo not given) | > 20000 nM | Active | 396 nM | –
8 | CN(Cc1nc2ccccc2[nH]1)C1CCCc2cccnc21 (stereo not given) | 5300 nM | Active | 1350 nM | –
9 | CN(Cc1nc2cccc(C(=O)NCCCN)c2[nH]1)C1CCCc2cccnc21 (stereo not given) | > 20000 nM | Active | 134 nM | –
10 | CN(Cc1nc2cccc(C(=O)NCCc3cnc[nH]3)c2[nH]1)C1CCCc2cccnc21 (stereo not given) | > 10000 nM | Active | 19 nM | –
11 | CN1CCN(c2cccc3nc(CN(C)[C@H]4CCCc5cccnc54)[nH]c23)CC1 | 12500 nM | Active | 0.6 nM | –
12 | CN(Cc1nc2cccc(C(=O)N3CCNCC3)c2[nH]1)C1CCCc2cccnc21 (stereo not given) | > 20000 nM | Active | 46 nM | –
13 | CN(Cc1nc2ccccc2n1CCCCCN)C1CCCc2cccnc21 (stereo not given) | 4500 nM | Active | 228 nM | –
14 | CN(Cc1nc2cccc(CCCN)c2[nH]1)C1CCCc2cccnc21 (stereo not given) | – | Active | 24 nM | –
15 | CN(Cc1nc2c(CCCN3CCCC3)cccc2[nH]1)C1CCCc2cccnc21 (stereo not given) | 8200 nM | – | – | –
16 | CN(Cc1nc2c(N3CCNCC3)cccc2[nH]1)C1CCCc2cccnc21 (stereo not given) | > 20000 nM | – | – | –
17 | CN(Cc1nc2c(C(=O)NCCN)cccc2[nH]1)C1CCCc2cccnc21 (stereo not given) | > 10000 nM | – | – | –
18 | CN(Cc1nc2cccc(CNCCN)c2[nH]1)C1CCCc2cccnc21 (stereo not given) | > 20000 nM | Active | 540 nM | –
19 | CN(Cc1nc2cccc(CN3CCNCC3)c2[nH]1)C1CCCc2cccnc21 (stereo not given) | – | Active | 13 nM | –

Row | SMILES | CC50 [1] | Activity [2] | IC50 [3] | Ratio IC50 [4]
20 | NCCCCN(Cc1nc2ccccc2[nH]1)[C@H]1CCCc2cccnc21 [MAVORIXAFOR] | > 10000 nM | Active | 10 nM | –
21 | CN(Cc1nc2c(CCCN3CCCCC3)cccc2[nH]1)C1CCCc2cccnc21 (stereo not given) | 8700 nM | – | – | –
22 | CN(Cc1nc2cccc(CCCN3CCCCC3)c2[nH]1)C1CCCc2cccnc21 (stereo not given) | – | Active | 25 nM | –
23 | CN(Cc1nc2c(CCCN)cccc2[nH]1)C1CCCc2cccnc21 (stereo not given) | 10000 nM | – | – | –
24 | CN(Cc1nc2cccc(C(=O)NCCN)c2[nH]1)C1CCCc2cccnc21 (stereo not given) | – | Active | 27 nM | –
25 | CN(Cc1nc2cccc(CNCCc3cnc[nH]3)c2[nH]1)C1CCCc2cccnc21 (stereo not given) | – | Active | 41 nM | –
26 | CN(Cc1nc2cccc(CCCN3CCCC3)c2[nH]1)C1CCCc2cccnc21 (stereo not given) | – | Active | 23 nM | –
27 | CN(Cc1nc2ccccc2n1CCCN)C1CCCc2cccnc21 (stereo not given) | > 20000 nM | Active | 44 nM | –
28 | CN(Cc1nc2cccc(N3CCN(C(=O)OC(C)(C)C)CC3)c2[nH]1)C1CCCc2cccnc21 (stereo not given) | > 10000 nM | Active | 271 nM | –
29 | CN1CCN(C(=O)c2cccc3nc(CN(C)C4CCCc5cccnc54)[nH]c23)CC1 (stereo not given) | – | Active | 33 nM | –
30 | CN(Cc1nc2ccccc2n1CCN)C1CCCc2cccnc21 (stereo not given) | > 20000 nM | Active | 197 nM | –
31 | CN(Cc1nc2cccc(CN)c2[nH]1)C1CCCc2cccnc21 (stereo not given) | > 20000 nM | Active | 1300 nM | –
32 | CN(C)CCCc1cccc2nc(CN(C)C3CCCc4cccnc43)[nH]c12 (stereo not given) | – | Active | 22 nM | –
33 | CN(Cc1nc2ccccc2n1CCCCN)C1CCCc2cccnc21 (stereo not given) | 2900 nM | Active | 144 nM | –
34 | CN(C)CCCn1c(CN(C)C2CCCc3cccnc32)nc2ccccc21 (stereo not given) | 16800 nM | Active | 17 nM | –
35 | CN(Cc1nc2ccccc2n1CCCNC(=O)C(F)(F)F)C1CCCc2cccnc21 (stereo not given) | 10400 nM | Active | 243 nM | –
36 | CN(C)CCCc1cccc2[nH]c(CN(C)C3CCCc4cccnc43)nc12 (stereo not given) | 7500 nM | – | – | –
37 | CN1CCN(c2cccc3nc(CN(C)C4CCCc5cccnc54)[nH]c23)CC1 (racemic) | 14000 nM | Active | 2 nM | 10
